Test [1] concerns SH-SY5Y neuroblastoma cells. The test can be described thus: Mitochondrial Membrane Potential Assay (JC-10) in SH-SY5Y cells. It is filed as cell-based. Conditions: 4 hr. The procedure:
SH-SY5Y neuroblastoma cells were cultured in 1:1 (v/v) DMEM/F12 medium (Invitrogen, Cat #11330032, Carlsbad, CA) supplemented with 1% non-essential amino acids (Invitrogen, Cat #11140050), 10% FBS, and 1% antibiotics including penicillin and streptomycin. Cell cultures were incubated at 37° C. in a fully humidified atmosphere containing 10% CO2.
Mitochondrial Membrane Potential Assay. Cells seeded at 5,000 cells/well onto 96-well black walled plates were treated with test compounds at the desired concentrations under the culture condition described above. The mitochondrial uncoupler FCCP at 2 μM was used as a reference control. After the desired treatments for 4 hr, the cells were subjected to a JC-10 mitochondrial membrane potential assay according to the manufacturer's instruction. Fluorescence intensities (Ex/Em=490/525 nm, and Ex/Em=540/590 nm) of each well were monitored on a SpectraMax M5 microplate reader. The ratio of fluorescence intensity (590/525 nm) was used to determine the mitochondrial membrane potential (ΔΨm). Decreasing ratios indicate mitochondrial membrane depolarization. Samples were analyzed in eight to sixteen wells per independent experiment (n=8-16). Results were verified by live-cell imaging under a fluorescence microscope.

The test system of another test is HT22 cells. The test can be described thus: Total GSH Measurements. It is filed as cell-based, mouse. Conditions: 5 μM. The procedure:
Total GSH Measurements. HT22 cells were seeded onto 35 mm dishes at a density of 70,000 cells/dish in DMEM supplemented with 10% FBS and 1% antibiotics. After the desired treatments, the cells were scraped into ice-cold PBS and the cell pellets collected by centrifugation (500 g). The pellets were resuspended in PBS and 10% sulfosalicylic acid was added at a final concentration of 3.3% to the cells. Proteins were pelleted by centrifugation and the supernatant neutralized. Total GSH was determined by the recycling assay based on the reduction of 5,5-dithiobis(2-nitrobenzoic acid) with glutathione reductase and NADPH and normalized to protein recovered from the acid-precipitated pellet by treatment with 0.2 N NaOH at 37° C. overnight and measured by the BCA protein assay (Pierce, Rockford, IL, USA). Samples were analyzed in four dishes per independent experiment (n=4).

The structures appear in SMILES notation.

In the case of `CCCCCc1cc(O)c2c(c1)OC(C)(C)c1ccc(C)cc1-2` [CBN, 6,6,9-Trimethyl-3-pentyl-benzo[c]chromen-1-ol], the “decrease of ΔΨm” value in test [1] was “also observed”. For the same molecule, in the test with HT22 cells, the “total GSH levels” value is listed as “no impact”.

(Values after patent publication US20240261302A1, “METHODS OF TREATING NEURODEGENERATIVE DISEASES OR CONDITIONS” (FloraScience Inc., priority 2023, published 2024).)
